Test results reported in PMC7544826 (Communications Biology, 2020).
“Also recorded” adds a separate entry of the source.

Key:
Notum [1] = target: T1, Notum (Homo sapiens, UniProt Q6P988, C330S); experiment: Notum activity assay with OPTS as substrate; assay type: biochemical; set-up: The human Notum enzyme core comprising amino acids S81–T451 with a C330S mutation; made in house; dialyzed conditioned medium used without purification; conditions: result in words
T1 sequence (Q6P988 81-451 C330S): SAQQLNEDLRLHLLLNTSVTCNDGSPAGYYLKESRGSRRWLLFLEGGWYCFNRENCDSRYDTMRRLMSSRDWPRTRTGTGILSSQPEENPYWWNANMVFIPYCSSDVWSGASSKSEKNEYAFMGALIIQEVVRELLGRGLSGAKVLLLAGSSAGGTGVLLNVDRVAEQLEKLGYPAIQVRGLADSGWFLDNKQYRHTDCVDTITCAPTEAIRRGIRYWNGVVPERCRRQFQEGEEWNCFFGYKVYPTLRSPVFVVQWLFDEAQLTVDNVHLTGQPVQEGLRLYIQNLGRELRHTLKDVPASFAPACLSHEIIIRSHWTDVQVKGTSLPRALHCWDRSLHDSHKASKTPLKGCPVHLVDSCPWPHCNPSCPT
Method: OPTS is a common lipase substrate with an octanoyl lipid linked to a fluorescent moiety. It is not a natural Notum substrate; however, it can be used to quantify the enzymatic activity of purified Notum protein[23],[25],[28]. […] The fluorescent lipase substrate OPTS was dissolved in water at a concentration of 20 µM. […] The inhibition curves were fitted with a one-site model with GraphPad Prism 8 software.

Notum [2] = target: T1, Notum; experiment: SPR equilibrium binding to biotinylated Notum on streptavidin chip; set-up: The human Notum enzyme core comprising amino acids S81–T451 with a C330S mutation; made in house; dialyzed conditioned medium used without purification; conditions: for SPR Response: Fig 2b
Method: The human Notum core sequence was cloned in a pHL-Avi3 vector[49] and co-transfected with the pDisplay_BirA-ER plasmid[50] into HEK293T cells with the media supplemented with 20 µM biotin. This procedure allows in vivo biotinylation to occur, and the dialyzed conditioned medium was directly used for SA sensor chip immobilization without protein purification. […] Approximately 2500 resonance units (RU) of the biotinylated Notum was coupled onto the chip. […] The response was plotted versus the concentration of the analytes and fitted by nonlinear regression to a one-site saturation binding model (GraphPad Prism 8).

Notum [3] = target: T1, Notum; experiment: Thermal shift assay (SYPRO Orange) of Notum; conditions: compound 500 µM; for Thermoflour melting curve fluorescence of Notum: Fig 2c
Method: Reference wells, i.e. solutions without compounds were used to compare the melting temperature (Tm). The experiments were performed in triplicate.

SMILES: Cn1c(=O)c2[nH]cnc2n(C)c1=O [theophylline, 1,3-dimethylxanthine]
- Notum inhibitory effect in OPTS enzyme assay (Notum [1]): not sufficient to inhibit Notum enzyme activity; also recorded: could not detect obvious Notum inhibitory effects
- SPR Response (Notum [2]; theophylline conc. 8.138e-6 (unit not given)): 6
- SPR Response (Notum [2]; theophylline conc. 1.628e-5 (unit not given)): 5.14
- SPR Response (Notum [2]; theophylline conc. 3.255e-5 (unit not given)): 5.26
- SPR Response (Notum [2]; theophylline conc. 6.51e-5 (unit not given)): 4.57
- SPR Response (Notum [2]; theophylline conc. 0.0001302 (unit not given)): 4.5
- SPR Response (Notum [2]; theophylline conc. 0.0002604 (unit not given)): 4.84
- SPR Response (Notum [2]; theophylline conc. 0.0005208 (unit not given)): 5.18
- SPR Response (Notum [2]; theophylline conc. 0.001042 (unit not given)): 6.64
- SPR Response (Notum [2]; theophylline conc. 0.002083 (unit not given)): 9.15
- SPR Response (Notum [2]; theophylline conc. 0.004167 (unit not given)): 13.17
- SPR Response (Notum [2]; theophylline conc. 0.008333 (unit not given)): 19.59
- SPR Response (Notum [2]; theophylline conc. 0.01667 (unit not given)): 29.6
- Binding to Notum (SPR response) (Notum [2]; result in words): weak binding; also recorded: very weak binding
- Thermoflour melting curve fluorescence of Notum (Notum [3]; Temperature 24.5): 897.128
- Thermoflour melting curve fluorescence of Notum (Notum [3]; Temperature 25.5): 765.384
- Thermoflour melting curve fluorescence of Notum (Notum [3]; Temperature 26.5): 637.209
- Thermoflour melting curve fluorescence of Notum (Notum [3]; Temperature 27.5): 518.408
- Thermoflour melting curve fluorescence of Notum (Notum [3]; Temperature 28.5): 414.177
- Thermoflour melting curve fluorescence of Notum (Notum [3]; Temperature 29.5): 331.765
- Thermoflour melting curve fluorescence of Notum (Notum [3]; Temperature 30.5): 250.774
- Thermoflour melting curve fluorescence of Notum (Notum [3]; Temperature 31.5): 158.442
- Thermoflour melting curve fluorescence of Notum (Notum [3]; Temperature 32.5): 68.441
- Thermoflour melting curve fluorescence of Notum (Notum [3]; Temperature 33.5): -19.5239
- Thermoflour melting curve fluorescence of Notum (Notum [3]; Temperature 34.5): -111.255
- Thermoflour melting curve fluorescence of Notum (Notum [3]; Temperature 35.5): -209.389
- Thermoflour melting curve fluorescence of Notum (Notum [3]; Temperature 36.5): -312.731
- Thermoflour melting curve fluorescence of Notum (Notum [3]; Temperature 37.5): -413.402
- Thermoflour melting curve fluorescence of Notum (Notum [3]; Temperature 38.5): -500.183
- Thermoflour melting curve fluorescence of Notum (Notum [3]; Temperature 39.5): -562.853
- Thermoflour melting curve fluorescence of Notum (Notum [3]; Temperature 40.5): -610.744
- Thermoflour melting curve fluorescence of Notum (Notum [3]; Temperature 41.5): -645.08
- Thermoflour melting curve fluorescence of Notum (Notum [3]; Temperature 42.5): -650.416
- Thermoflour melting curve fluorescence of Notum (Notum [3]; Temperature 43.5): -632.566
- Thermoflour melting curve fluorescence of Notum (Notum [3]; Temperature 44.5): -596.655
- Thermoflour melting curve fluorescence of Notum (Notum [3]; Temperature 45.5): -543.168
- Thermoflour melting curve fluorescence of Notum (Notum [3]; Temperature 46.5): -459.896
- Thermoflour melting curve fluorescence of Notum (Notum [3]; Temperature 47.5): -343.992
- Thermoflour melting curve fluorescence of Notum (Notum [3]; Temperature 48.5): -208.285
- Thermoflour melting curve fluorescence of Notum (Notum [3]; Temperature 49.5): -58.8655
- Thermoflour melting curve fluorescence of Notum (Notum [3]; Temperature 50.5): 106.458
- Thermoflour melting curve fluorescence of Notum (Notum [3]; Temperature 51.5): 280.009
- Thermoflour melting curve fluorescence of Notum (Notum [3]; Temperature 52.5): 465.116
- Thermoflour melting curve fluorescence of Notum (Notum [3]; Temperature 53.5): 688.929
- Thermoflour melting curve fluorescence of Notum (Notum [3]; Temperature 54.5): 944.753
- Thermoflour melting curve fluorescence of Notum (Notum [3]; Temperature 55.5): 1249.14
- Thermoflour melting curve fluorescence of Notum (Notum [3]; Temperature 56.5): 1627.12
- Thermoflour melting curve fluorescence of Notum (Notum [3]; Temperature 57.5): 2089.03
- Thermoflour melting curve fluorescence of Notum (Notum [3]; Temperature 58.5): 2740.86
- Thermoflour melting curve fluorescence of Notum (Notum [3]; Temperature 59.5): 3654.17
- Thermoflour melting curve fluorescence of Notum (Notum [3]; Temperature 60.5): 4930.23
- Thermoflour melting curve fluorescence of Notum (Notum [3]; Temperature 61.5): 6643.29
- Thermoflour melting curve fluorescence of Notum (Notum [3]; Temperature 62.5): 8772.9
- Thermoflour melting curve fluorescence of Notum (Notum [3]; Temperature 63.5): 11088.9
- Thermoflour melting curve fluorescence of Notum (Notum [3]; Temperature 64.5): 13331.1
- Thermoflour melting curve fluorescence of Notum (Notum [3]; Temperature 65.5): 15330
- Thermoflour melting curve fluorescence of Notum (Notum [3]; Temperature 66.5): 16941.4
- Thermoflour melting curve fluorescence of Notum (Notum [3]; Temperature 67.5): 18219.9
- Thermoflour melting curve fluorescence of Notum (Notum [3]; Temperature 68.5): 19263.9
- Thermoflour melting curve fluorescence of Notum (Notum [3]; Temperature 69.5): 20098.6
- Thermoflour melting curve fluorescence of Notum (Notum [3]; Temperature 70.5): 20739.3
- Thermoflour melting curve fluorescence of Notum (Notum [3]; Temperature 71.5): 21242.8
- Thermoflour melting curve fluorescence of Notum (Notum [3]; Temperature 72.5): 21635.7
- Thermoflour melting curve fluorescence of Notum (Notum [3]; Temperature 73.5): 21967.5
- Thermoflour melting curve fluorescence of Notum (Notum [3]; Temperature 74.5): 22276.2
- Thermoflour melting curve fluorescence of Notum (Notum [3]; Temperature 75.5): 22539.4
- Thermoflour melting curve fluorescence of Notum (Notum [3]; Temperature 76.5): 22758.8
- Thermoflour melting curve fluorescence of Notum (Notum [3]; Temperature 77.5): 22973.7
- Thermoflour melting curve fluorescence of Notum (Notum [3]; Temperature 78.5): 23167.2
- Thermoflour melting curve fluorescence of Notum (Notum [3]; Temperature 79.5): 23367.9
- Thermoflour melting curve fluorescence of Notum (Notum [3]; Temperature 80.5): 23544.1
- Thermoflour melting curve fluorescence of Notum (Notum [3]; Temperature 81.5): 23667.9
- Thermoflour melting curve fluorescence of Notum (Notum [3]; Temperature 82.5): 23791
- Thermoflour melting curve fluorescence of Notum (Notum [3]; Temperature 83.5): 23926.1
- Thermoflour melting curve fluorescence of Notum (Notum [3]; Temperature 84.5): 24091.4
- Thermoflour melting curve fluorescence of Notum (Notum [3]; Temperature 85.5): 24243.5
- Thermoflour melting curve fluorescence of Notum (Notum [3]; Temperature 86.5): 24338.2
- Thermoflour melting curve fluorescence of Notum (Notum [3]; Temperature 87.5): 24414.9
- Thermoflour melting curve fluorescence of Notum (Notum [3]; Temperature 88.5): 24481.1
- Thermoflour melting curve fluorescence of Notum (Notum [3]; Temperature 89.5): 24523
- Thermoflour melting curve fluorescence of Notum (Notum [3]; Temperature 90.5): 24559.4
- Thermoflour melting curve fluorescence of Notum (Notum [3]; Temperature 91.5): 24580.6
- Thermoflour melting curve fluorescence of Notum (Notum [3]; Temperature 92.5): 24587.9
- Thermoflour melting curve fluorescence of Notum (Notum [3]; Temperature 93.5): 24608.3
- Thermoflour melting curve fluorescence of Notum (Notum [3]; Temperature 94.5): 24615
- Thermoflour melting curve fluorescence of Notum (Notum [3]; Temperature 95.5): 24596.6
- Thermoflour melting curve fluorescence of Notum (Notum [3]; Temperature 96.5): 24576.1
- Thermoflour melting curve fluorescence of Notum (Notum [3]; Temperature 97.5): 24555
- Effect on Tm of Notum (Notum [3]): very weak binding to Notum
- ∆Tm of Notum (Notum [3]; versus Notum without compounds): about 1 °C
- Melting temperature (Tm) of Notum (Notum [3]; Notum without compounds Tm 63.6 °C): 64.5 °C
